Results reported in patent US20130131161A1, “METHODS AND COMPOSITIONS FOR CARDIOVASCULAR DISEASES AND CONDITIONS” (priority 2009, published 2013).

Tested on: eNOS
Assay: eNOS protein abundance in HUVECs by immunochemical methods (Example 2)
Assay type: cell-based, human
Conditions: for Fold difference eNOS protein abundance (mean ± sd): (LA-419 5 μM)/(control); for eNOS protein abundance Fold difference (mean ± sd): LA-419 5 μM / control; for eNOS protein abundance Net increase (mean ± sd): avg 5 μM LA-419 − avg Cntl
Excerpt: eNOS Activity and Protein Abundance Measurements
Using immunochemical methods, there was no change in any condition in relation to eNOS protein abundance, Tables ss-L1.

CC(=O)SC1COC2C(O[N+](=O)[O-])COC12 (stereo not drawn) [LA-419, S-(6-Nitro-oxi-hexahydro-furo[3,2-b]furan-3-1-il)thioacetate]
Fold difference eNOS protein abundance (mean ± sd) (Intron 4 b/a, a/a, c/c, n=14): 1.00 (0.09) | Fold difference eNOS protein abundance (mean ± sd) (Intron 4 b/a, n=10): 1.01 (0.10) | Fold difference eNOS protein abundance (mean ± sd) (Intron 4 b/b, b/a, c/c, n=42): 0.99 (0.08) | Fold difference eNOS protein abundance (mean ± sd) (Intron 4 b/b, n=31): 0.98 (0.07) | Fold difference eNOS protein abundance (mean ± sd) (Intron 4 c/c, n=1): 0.94 (0) | Fold difference eNOS protein abundance (mean ± sd) (T786C T/T & T/C, n=45): 0.99 (0.08) | Fold difference eNOS protein abundance (mean ± sd) (T-786C C/C, n=4): 0.93 (0.06) | Fold difference eNOS protein abundance (mean ± sd) (T-786C T/C & C/C, n=27): 0.99 (0.09) | Fold difference eNOS protein abundance (mean ± sd) (T-786C T/C, n=23): 1.00 (0.09) | Fold difference eNOS protein abundance (mean ± sd) (T-786C T/T, n=22): 0.99 (0.06) | eNOS protein abundance Fold difference (mean ± sd) (Caucasian, G894T + T-786C variant G/G + T/C (n=3), Table K): 1.10 (0.05) | eNOS protein abundance Fold difference (mean ± sd) (Caucasian, G894T + T-786C variant G/G + T/T (n=7), reference group, Table K): 1.04 (0.04) | eNOS protein abundance Fold difference (mean ± sd) (Caucasian, G894T + T-786C variant G/T + T/C (n=10), Table K): 1.00 (0.08) | eNOS protein abundance Fold difference (mean ± sd) (Caucasian, G894T + T-786C variant G/T + T/T (n=3), Table K): 1.02 (0.09) | eNOS protein abundance Fold difference (mean ± sd) (Caucasian, G894T + T-786C variant T/T + T/C (n=2), Table K): 1.04 (0.01) | eNOS protein abundance Fold difference (mean ± sd) (Caucasian, G894T variant G/G (n=10), major allele homozygotes, Table J): 1.06 (0.05) | eNOS protein abundance Fold difference (mean ± sd) (Caucasian, G894T variant G/G (n=10), Table I): 1.06 (0.05) | eNOS protein abundance Fold difference (mean ± sd) (Caucasian, G894T variant G/T & T/T (n=16), minor allele carriers, Table J): 1.01 (0.07) | eNOS protein abundance Fold difference (mean ± sd) (Caucasian, G894T variant G/T (n=13), Table I): 1.00 (0.08) | eNOS protein abundance Fold difference (mean ± sd) (Caucasian, G894T variant T/T (n=3), Table I): 1.03 (0.02) | eNOS protein abundance Fold difference (mean ± sd) (Caucasian, Genotype Combination = all minor allele carriers (n=19), Table L): 1.02 (0.08) | eNOS protein abundance Fold difference (mean ± sd) (Caucasian, Genotype Reference = G/G + T/T (n=7), Table L): 1.04 (0.04) | eNOS protein abundance Fold difference (mean ± sd) (Caucasian, Intron 4 variant b/a & a/a (n=6), minor allele carriers, Table J): 1.08 (0.06) | eNOS protein abundance Fold difference (mean ± sd) (Caucasian, Intron 4 variant b/a (n=5), Table I): 1.07 (0.06) | eNOS protein abundance Fold difference (mean ± sd) (Caucasian, Intron 4 variant b/b (n=18), major allele homozygotes, Table J): 1.00 (0.06) | eNOS protein abundance Fold difference (mean ± sd) (Caucasian, Intron 4 variant b/b (n=18), Table I): 1.00 (0.06) | eNOS protein abundance Fold difference (mean ± sd) (Caucasian, T-786C variant T/C & C/C (n=16), minor allele carriers, Table J): 1.02 (0.08) | eNOS protein abundance Fold difference (mean ± sd) (Caucasian, T-786C variant T/C (n=15), Table I): 1.02 (0.08) | eNOS protein abundance Fold difference (mean ± sd) (Caucasian, T-786C variant T/T (n=10), major allele homozygotes, Table J): 1.03 (0.06) | eNOS protein abundance Fold difference (mean ± sd) (Caucasian, T-786C variant T/T (n=10), Table I): 1.03 (0.06) | eNOS protein abundance Fold difference (mean ± sd) (G894T + T-786C variant T/T + C/C (n=1), Table K): 1.01 (0) | eNOS protein abundance Fold difference (mean ± sd) (Intron 4 variant a/a (n=1), Table I): 1.14 (0) | eNOS protein abundance Fold difference (mean ± sd) (T-786C variant C/C (n=1), Table I): 1.01 (0) | eNOS protein abundance (any condition, Tables ss-L1): no change | eNOS protein abundance Net increase (mean ± sd) (Combination of all G894T + T786C genotypes but G/G + T/T, n=31): −0.12 (0.53) pg/ug | eNOS protein abundance Net increase (mean ± sd) (G894T + T786C G/G + T/C, n=8): −0.17 (0.77) pg/ug | eNOS protein abundance Net increase (mean ± sd) (G894T + T786C G/G + T/T, n=18): −0.09 (0.35) pg/ug | eNOS protein abundance Net increase (mean ± sd) (G894T + T786C G/T + C/C, n=1): −0.99 (0) pg/ug | eNOS protein abundance Net increase (mean ± sd) (G894T + T786C G/T + T/C, n=13): −0.03 (0.42) pg/ug | eNOS protein abundance Net increase (mean ± sd) (G894T + T786C G/T + T/T, n=4): −0.03 (0.46) pg/ug | eNOS protein abundance Net increase (mean ± sd) (G894T + T786C T/T + C/C, n=3): −0.41 (0.46) pg/ug | eNOS protein abundance Net increase (mean ± sd) (G894T + T786C T/T + T/C, n=2): 0.17 (0.02) pg/ug | eNOS protein abundance Net increase (mean ± sd) (G894T G/G, n=26): −0.12 (0.50) pg/ug | eNOS protein abundance Net increase (mean ± sd) (G894T G/T & T/T, n=23): −0.10 (0.45) pg/ug | eNOS protein abundance Net increase (mean ± sd) (G894T G/T, n=18): −0.08 (0.46) pg/ug | eNOS protein abundance Net increase (mean ± sd) (G894T T/T, n=5): −0.18 (0.45) pg/ug | eNOS protein abundance Net increase (mean ± sd) (Intron 4 a/a, n=3): −0.05 (0.69) pg/ug | eNOS protein abundance Net increase (mean ± sd) (Intron 4 b/a, a/a, c/c, n=14): −0.05 (0.55) pg/ug | eNOS protein abundance Net increase (mean ± sd) (Intron 4 b/a, n=10): −0.02 (0.56) pg/ug | eNOS protein abundance Net increase (mean ± sd) (Intron 4 b/b, n=31): −0.14 (0.45) pg/ug | eNOS protein abundance Net increase (mean ± sd) (Intron 4 c/c, n=1): −0.44 (0) pg/ug | eNOS protein abundance Net increase (mean ± sd) (T786C C/C, n=4): −0.55 (0.47) pg/ug | eNOS protein abundance Net increase (mean ± sd) (T786C T/C & C/C, n=27): −0.13 (0.55) pg/ug | eNOS protein abundance Net increase (mean ± sd) (T786C T/C, n=23): −0.06 (0.54) pg/ug | eNOS protein abundance Net increase (mean ± sd) (T786C T/T, n=22): −0.08 (0.36) pg/ug
